Data from PubChem BioAssay AID248 (DTP/NCI, 2004).
Several values for one entry are separate records, joined by “and”; a condition that tells them apart may be missing. Identical values can stand only once. Toxic doses and inconclusive results are not listed. Cut-off read from the data, not from the text of the source: active = T/C of 150% or more; inactive = T/C below 125%. Square brackets hold non-standard residues; d marks the D form. Peptide text beside a SMILES is read from it. * marks the point of attachment. ξ: configuration not given here. ξL = CC(C)CC(N)C(=O)O; ClAc = O=C(CCl)*

Test system: L1210 leukemia ip in BDF1 mice, survival T/C
Test: NCI In Vivo Anticancer Drug Screen. Data for tumor model L1210 Leukemia (intraperitoneal) in B6D2F1 (BDF1) mice
Details: endpoint: mean survival time, higher = longer survival
How it was run: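 Tumor was transplanted into mice, which were then dosed with test compound or vehicle alone. Survival was recorded for each group, and the treated figure was expressed relative to the control figure.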

[1] = dose: 50.0 mg/kg/injection, schedule: Q01DX009 (ip), vehicle: saline
[2] = dose: 100.0 mg/kg/injection, schedule: Q01DX009 (ip), vehicle: saline
[3] = dose: 100.0 mg/kg/injection, schedule: Q04DX003 (ip), vehicle: saline
[4] = dose: 200.0 mg/kg/injection, schedule: Q01DX009 (ip), vehicle: saline
[5] = dose: 200.0 mg/kg/injection, schedule: Q04DX003 (ip), vehicle: saline
[6] = dose: 400.0 mg/kg/injection, schedule: Q04DX003 (ip), vehicle: saline
[7] = dose: 100.0 mg/kg/injection, schedule: Q01DX009 (ip), vehicle: Klucel (hydroxypropylcellulose) (HPC)
[8] = dose: 200.0 mg/kg/injection, schedule: Q01DX009 (ip), vehicle: Klucel (hydroxypropylcellulose) (HPC)
[9] = dose: 400.0 mg/kg/injection, schedule: Q01DX009 (ip), vehicle: Klucel (hydroxypropylcellulose) (HPC)
[10] = dose: 100.0 mg/kg/injection, schedule: Q01DX001 (ip), vehicle: carboxymethylcellulose (CMC)
[11] = dose: 200.0 mg/kg/injection, schedule: Q01DX001 (ip), vehicle: carboxymethylcellulose (CMC)
[12] = dose: 400.0 mg/kg/injection, schedule: Q01DX001 (ip), vehicle: carboxymethylcellulose (CMC)
[13] = dose: 100.0 mg/kg/injection, schedule: Q01DX001 (ip), vehicle: saline
[14] = dose: 200.0 mg/kg/injection, schedule: Q01DX001 (ip), vehicle: saline
[15] = dose: 400.0 mg/kg/injection, schedule: Q01DX001 (ip), vehicle: saline
[16] = dose: 100.0 mg/kg/injection, schedule: Q04DX002 (ip), vehicle: Klucel (hydroxypropylcellulose) (HPC)
[17] = dose: 200.0 mg/kg/injection, schedule: Q04DX002 (ip), vehicle: Klucel (hydroxypropylcellulose) (HPC)
[18] = dose: 400.0 mg/kg/injection, schedule: Q04DX002 (ip), vehicle: Klucel (hydroxypropylcellulose) (HPC)
[19] = dose: 50.0 mg/kg/injection, schedule: Q01DX009 (ip), vehicle: Klucel (hydroxypropylcellulose) (HPC)
[20] = dose: 50.0 mg/kg/injection, schedule: Q01DX001 (ip), vehicle: saline
[21] = dose: 6.25 mg/kg/injection, schedule: Q01DX009 (ip), vehicle: saline
[22] = dose: 12.5 mg/kg/injection, schedule: Q01DX009 (ip), vehicle: saline
[23] = dose: 12.5 mg/kg/injection, schedule: Q04DX003 (ip), vehicle: saline
[24] = dose: 25.0 mg/kg/injection, schedule: Q01DX009 (ip), vehicle: saline
[25] = dose: 25.0 mg/kg/injection, schedule: Q04DX003 (ip), vehicle: saline
[26] = dose: 50.0 mg/kg/injection, schedule: Q04DX003 (ip), vehicle: saline
[27] = dose: 100.0 mg/kg/injection, schedule: Q04DX003 (ip), vehicle: saline with Tween-80
[28] = dose: 200.0 mg/kg/injection, schedule: Q04DX003 (ip), vehicle: saline with Tween-80
[29] = dose: 400.0 mg/kg/injection, schedule: Q04DX003 (ip), vehicle: saline with Tween-80
[30] = dose: 100.0 mg/kg/injection, schedule: Q01DX009 (ip), vehicle: saline with Tween-80

Measured: T/C

ClC1=C(Cl)C2(Cl)CCC1(Cl)C2Cl (stereo not drawn)
inactive: [1] 103 % of control | [2] 98 % of control | [3] 104 % of control | [4] 95 % of control | [5] 103 % of control | [6] 97 % of control

CC1=NN(c2ccc(S(=O)(=O)O)cc2)C(=O)/C1=C/c1ccc(Cl)cc1
inactive: dose: 100.0 mg/kg/injection, schedule: Q01DX009 (ip), vehicle: saline sonified 105 % of control | dose: 200.0 mg/kg/injection, schedule: Q01DX009 (ip), vehicle: saline sonified 100 % of control | [5] 102 % of control | dose: 400.0 mg/kg/injection, schedule: Q01DX009 (ip), vehicle: saline sonified 104 % of control | [6] 98 % of control

CN(C)c1ccc(/C=C/c2nc3ccccc3o2)cc1
inactive: [7] 95 % of control | [8] 95 % of control | [9] 94 % of control

CCCCC(O)(CCCC)CC(C)(C)C
inactive: [10] 103 % of control | [11] 92 % of control | [12] 92 % of control

CN(C)c1nc(N)nc2c1nc(Cl)n2C1OC(CO)C(O)C1O (stereo not drawn)
inactive: [13] 97 % of control | [14] 94 % of control | [15] 105 % of control

C1=C(c2ccccc2)N(C2CCCC2)C(c2ccccc2)=CN1Cc1ccccc1
inactive: [16] 100 % of control | [17] 95 % of control | [18] 97 % of control

c1cncc(CNc2ncn[nH]2)c1
inactive: [2] 103 % of control | [3] 97 % of control | [4] 97 % of control | [5] 103 % of control | dose: 400.0 mg/kg/injection, schedule: Q01DX009 (ip), vehicle: saline 103 % of control | [6] 95 % of control

CC1CCc2nc(C#N)c(N)nc2C1 (stereo not drawn)
inactive: [19] 103 % of control | [7] 97 % of control | [8] 106 % of control

CCOC(=O)c1ccc(SC(Cl)(Cl)Cl)cc1
inactive: dose: 100.0 mg/kg/injection, schedule: Q01DX001 (ip), vehicle: alcohol 98 % of control | dose: 200.0 mg/kg/injection, schedule: Q01DX001 (ip), vehicle: alcohol 107 % of control | dose: 400.0 mg/kg/injection, schedule: Q01DX001 (ip), vehicle: alcohol 120 % of control

CCOC(=O)C1CN(C(C)(C)C)C(=O)C1=O (stereo not drawn)
inactive: [20] 106 % of control | [13] 102 % of control | [14] 108 % of control | [15] 100 % of control

COc1ccc(O)c(CCCO)c1
inactive: [20] 104 % of control | [13] 95 % of control | [14] 112 % of control | [15] 95 % of control

CCCC(Sc1ncnc2nc[nH]c12)C(=O)O (stereo not drawn)
inactive: [10] 95 % of control | [11] 98 % of control | [12] 103 % of control

FC(F)(F)c1cccc(-n2nncc2-c2ccccc2)c1
inactive: [16] 97 % of control | [17] 101 % of control | [18] 97 % of control

COC(=O)C1=CCCN(C)C1
inactive: dose: 3.12 mg/kg/injection, schedule: Q01DX009 (ip), vehicle: saline 103 % of control | [21] 101 % of control | [22] 98 % of control | [23] 93 % of control | dose: 20.0 mg/kg/injection, schedule: Q01DX009 (ip), vehicle: saline 93 % of control | dose: 20.0 mg/kg/injection, schedule: Q04DX003 (ip), vehicle: saline 97 % of control | [24] 98 % of control | [25] 95 % of control and 94 % of control | dose: 40.0 mg/kg/injection, schedule: Q01DX009 (ip), vehicle: saline 92 % of control | dose: 40.0 mg/kg/injection, schedule: Q04DX003 (ip), vehicle: saline 94 % of control | [1] 106 % of control | [26] 103 % of control and 94 % of control | dose: 80.0 mg/kg/injection, schedule: Q01DX009 (ip), vehicle: saline 90 % of control | dose: 80.0 mg/kg/injection, schedule: Q04DX003 (ip), vehicle: saline 100 % of control

Nc1cc([N+](=O)[O-])cnc1NCCc1ccccc1
inactive: [27] 97 % of control | [28] 98 % of control | [29] 104 % of control

CC(C)CC(NC(=O)CCl)C(=O)NCC(=O)O (stereo not drawn) (ClAc-[ξL]-Gly-OH)
inactive: [30] 94 % of control | [27] 101 % of control | [28] 95 % of control | [29] 103 % of control

C[N+](C)(CC(=O)Nc1ccc(Cl)cc1)Cc1ccc2c(c1)CCCC2
inactive: dose: 6.25 mg/kg/injection, schedule: Q04DX002 (ip), vehicle: saline with Tween-80 90 % of control | dose: 12.5 mg/kg/injection, schedule: Q04DX002 (ip), vehicle: saline with Tween-80 90 % of control | dose: 25.0 mg/kg/injection, schedule: Q04DX002 (ip), vehicle: saline with Tween-80 90 % of control and 91 % of control

Cc1nc2ccc(O)cc2cc1CBr
inactive: [21] 112 % of control | [22] 104 % of control | [23] 107 % of control | [24] 106 % of control | [25] 115 % of control | [26] 97 % of control

COc1ccc(/C=C/C(=O)c2ccc(OC)c(OC)c2)cc1OC
inactive: [30] 100 % of control | dose: 200.0 mg/kg/injection, schedule: Q01DX009 (ip), vehicle: saline with Tween-80 105 % of control | dose: 400.0 mg/kg/injection, schedule: Q01DX009 (ip), vehicle: saline with Tween-80 102 % of control

CCCCCCCCOC(=O)c1ccccc1C(=O)OCCCCCCCC
inactive: [7] 96 % of control | dose: 100.0 mg/kg/injection, schedule: Q04DX003 (ip), vehicle: Klucel (hydroxypropylcellulose) (HPC) 97 % of control | [8] 94 % of control | dose: 200.0 mg/kg/injection, schedule: Q04DX003 (ip), vehicle: Klucel (hydroxypropylcellulose) (HPC) 93 % of control | [9] 96 % of control | dose: 400.0 mg/kg/injection, schedule: Q04DX003 (ip), vehicle: Klucel (hydroxypropylcellulose) (HPC) 92 % of control

O=S(=O)(CBr)CC(Cl)c1ccccc1 (stereo not drawn)
inactive: [16] 100 % of control | [17] 106 % of control | [18] 100 % of control

O=c1oc(-c2ccccc2)c(-c2ccccc2)o1
inactive: dose: 100.0 mg/kg/injection, schedule: Q04DX002 (ip), vehicle: other 100 % of control | dose: 200.0 mg/kg/injection, schedule: Q04DX002 (ip), vehicle: other 103 % of control | dose: 400.0 mg/kg/injection, schedule: Q04DX002 (ip), vehicle: other 96 % of control

N#CSCC(=O)c1ccccc1
inactive: dose: 3.0 mg/kg/injection, schedule: Q01DX009 (ip), vehicle: Klucel (hydroxypropylcellulose) (HPC) 104 % of control | dose: 6.0 mg/kg/injection, schedule: Q01DX009 (ip), vehicle: Klucel (hydroxypropylcellulose) (HPC) 101 % of control | dose: 12.0 mg/kg/injection, schedule: Q01DX001 (ip), vehicle: saline 105 % of control | dose: 12.0 mg/kg/injection, schedule: Q01DX009 (ip), vehicle: Klucel (hydroxypropylcellulose) (HPC) 107 % of control | dose: 12.0 mg/kg/injection, schedule: Q04DX003 (ip), vehicle: saline 104 % of control | dose: 25.0 mg/kg/injection, schedule: Q01DX001 (ip), vehicle: saline 113 % of control | [25] 106 % of control | [20] 97 % of control | [26] 101 % of control

CCNCCCNCC
inactive: dose: 75.0 mg/kg/injection, schedule: Q01DX001 (ip), vehicle: saline 100 % of control | dose: 150.0 mg/kg/injection, schedule: Q01DX001 (ip), vehicle: saline 93 % of control

COc1cc(OC(=O)Nc2ccc([N+](=O)[O-])cc2OC)ccc1C=O
inactive: dose: 25.0 mg/kg/injection, schedule: Q01DX009 (ip), vehicle: Klucel (hydroxypropylcellulose) (HPC) 92 % of control | [19] 92 % of control | [7] 105 % of control and 88 % of control
